In general, IC50 refers to the concentration that gives 50% inhibition. Lower therefore signals inhibition by little substance.

The record followed here is patent US20140228349A1, “5,7-SUBSTITUTED-IMIDAZO[1,2-C]PYRIMIDINES” (Array BioPharma Inc., priority 2011, published 2014).

Holding throughout (assay type): biochemical
Experiment [1] has as its target T1, Human Tyk2 kinase domain (Homo sapiens, UniProt P29597).
T1 construct: comprising amino acids 886 to 1187; His10 (10 histidine residues) (C, cleaved yes); made in house
T1 sequence (P29597 886-1187): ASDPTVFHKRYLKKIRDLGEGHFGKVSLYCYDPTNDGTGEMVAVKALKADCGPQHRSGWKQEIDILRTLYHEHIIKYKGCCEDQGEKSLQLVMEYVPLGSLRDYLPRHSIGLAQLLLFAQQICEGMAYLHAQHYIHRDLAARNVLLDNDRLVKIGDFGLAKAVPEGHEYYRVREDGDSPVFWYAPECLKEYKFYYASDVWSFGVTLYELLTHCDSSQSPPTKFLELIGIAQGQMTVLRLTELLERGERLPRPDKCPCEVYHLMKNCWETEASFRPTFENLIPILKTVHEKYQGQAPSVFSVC
As to the kind of experiment: Tyk2 Inhibition Assay (Omnia kinase fluorescence peptide substrate). The settings on record: averaged IC50 ranges; 10 μM (Km app) or 1 mM ATP, 2 nM Tyk2. In outline:
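Phosphorylation of 8 μM Omnia Y12 peptide followed kinetically by Sox fluorescence, ex 360/em 485 nm, every 50 s for 45 min. Enzyme: 2 nM Tyk2 kinase domain (aa 886–1187, His tag removed); ATP at 10 μM (Km app) or 1 mM; buffer HEPES pH 7.4 with MgCl2, Triton X-100, DTT. 10-point curves up to 10 μM, IC50 from 4-parameter logistic fit.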

Experiment [2] has as its target T2, JAK1 (Homo sapiens, UniProt P23458).
T2 construct: purchased Invitrogen Corporation, Carlsbad, Calif; IVGN PV4775
As to the kind of experiment: JAK1 Inhibition Assay (Omnia kinase fluorescence peptide substrate). The settings on record: averaged IC50 ranges; 40 μM (Km app) or 1 mM ATP, 15 nM JAK1. In outline:
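15 nM JAK1, 8 μM Omnia Y12 peptide, 40 μM (Km app) or 1 mM ATP; 25 mM HEPES pH 7.4, 10 mM MgCl2, 2% DMSO. Fluorescence (ex 360/em 485 nm) read every 50 s over 45 min. IC50 by 4-parameter fit of percent of control, top dose 10 μM.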

For experiment [3], the target named is T3, JAK2 (Homo sapiens, UniProt O60674).
T3 construct: purchased Invitrogen Corporation, Carlsbad, Calif; IVGN PV4288
T3 sequence (O60674 whole entry): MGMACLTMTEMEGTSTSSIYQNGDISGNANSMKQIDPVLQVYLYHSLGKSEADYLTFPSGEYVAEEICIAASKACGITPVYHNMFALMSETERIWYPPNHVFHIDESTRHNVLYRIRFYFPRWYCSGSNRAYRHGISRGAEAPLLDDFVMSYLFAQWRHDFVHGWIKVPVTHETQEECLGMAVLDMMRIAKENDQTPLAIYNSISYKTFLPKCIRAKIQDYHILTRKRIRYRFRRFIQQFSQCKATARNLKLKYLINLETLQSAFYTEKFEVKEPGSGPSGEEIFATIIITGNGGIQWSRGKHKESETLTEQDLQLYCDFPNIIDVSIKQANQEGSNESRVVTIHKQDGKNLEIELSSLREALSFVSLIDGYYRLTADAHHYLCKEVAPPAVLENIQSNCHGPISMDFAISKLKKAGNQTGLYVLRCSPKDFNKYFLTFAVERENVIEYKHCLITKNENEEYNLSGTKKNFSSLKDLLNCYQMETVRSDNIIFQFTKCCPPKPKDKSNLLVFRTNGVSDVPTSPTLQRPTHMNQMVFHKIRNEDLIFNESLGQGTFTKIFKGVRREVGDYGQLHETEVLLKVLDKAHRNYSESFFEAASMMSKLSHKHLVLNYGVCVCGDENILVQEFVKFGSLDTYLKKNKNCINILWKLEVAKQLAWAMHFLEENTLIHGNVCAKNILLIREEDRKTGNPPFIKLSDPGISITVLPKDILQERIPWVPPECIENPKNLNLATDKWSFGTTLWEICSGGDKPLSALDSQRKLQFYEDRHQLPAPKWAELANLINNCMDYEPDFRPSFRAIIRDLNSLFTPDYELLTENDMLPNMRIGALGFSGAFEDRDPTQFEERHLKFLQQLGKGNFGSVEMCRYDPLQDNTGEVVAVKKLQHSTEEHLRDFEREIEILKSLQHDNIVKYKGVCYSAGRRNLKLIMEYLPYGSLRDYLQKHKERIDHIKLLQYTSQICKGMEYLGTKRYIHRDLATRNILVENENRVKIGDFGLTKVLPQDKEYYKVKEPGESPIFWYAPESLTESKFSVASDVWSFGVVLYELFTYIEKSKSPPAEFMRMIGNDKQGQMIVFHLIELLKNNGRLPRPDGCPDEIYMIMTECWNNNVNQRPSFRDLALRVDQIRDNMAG
The experiment can be described thus: JAK2 Inhibition Assay (Omnia kinase fluorescence peptide substrate). Particulars: averaged IC50 ranges; 25 μM (Km app) or 1 mM ATP, 5 nM JAK2.

The target of experiment [4] is T4, JAK3 (Homo sapiens, UniProt P52333).
T4 construct: purchased Invitrogen Corporation, Carlsbad, Calif; IVGN PV4080
T4 sequence (P52333 1-1124): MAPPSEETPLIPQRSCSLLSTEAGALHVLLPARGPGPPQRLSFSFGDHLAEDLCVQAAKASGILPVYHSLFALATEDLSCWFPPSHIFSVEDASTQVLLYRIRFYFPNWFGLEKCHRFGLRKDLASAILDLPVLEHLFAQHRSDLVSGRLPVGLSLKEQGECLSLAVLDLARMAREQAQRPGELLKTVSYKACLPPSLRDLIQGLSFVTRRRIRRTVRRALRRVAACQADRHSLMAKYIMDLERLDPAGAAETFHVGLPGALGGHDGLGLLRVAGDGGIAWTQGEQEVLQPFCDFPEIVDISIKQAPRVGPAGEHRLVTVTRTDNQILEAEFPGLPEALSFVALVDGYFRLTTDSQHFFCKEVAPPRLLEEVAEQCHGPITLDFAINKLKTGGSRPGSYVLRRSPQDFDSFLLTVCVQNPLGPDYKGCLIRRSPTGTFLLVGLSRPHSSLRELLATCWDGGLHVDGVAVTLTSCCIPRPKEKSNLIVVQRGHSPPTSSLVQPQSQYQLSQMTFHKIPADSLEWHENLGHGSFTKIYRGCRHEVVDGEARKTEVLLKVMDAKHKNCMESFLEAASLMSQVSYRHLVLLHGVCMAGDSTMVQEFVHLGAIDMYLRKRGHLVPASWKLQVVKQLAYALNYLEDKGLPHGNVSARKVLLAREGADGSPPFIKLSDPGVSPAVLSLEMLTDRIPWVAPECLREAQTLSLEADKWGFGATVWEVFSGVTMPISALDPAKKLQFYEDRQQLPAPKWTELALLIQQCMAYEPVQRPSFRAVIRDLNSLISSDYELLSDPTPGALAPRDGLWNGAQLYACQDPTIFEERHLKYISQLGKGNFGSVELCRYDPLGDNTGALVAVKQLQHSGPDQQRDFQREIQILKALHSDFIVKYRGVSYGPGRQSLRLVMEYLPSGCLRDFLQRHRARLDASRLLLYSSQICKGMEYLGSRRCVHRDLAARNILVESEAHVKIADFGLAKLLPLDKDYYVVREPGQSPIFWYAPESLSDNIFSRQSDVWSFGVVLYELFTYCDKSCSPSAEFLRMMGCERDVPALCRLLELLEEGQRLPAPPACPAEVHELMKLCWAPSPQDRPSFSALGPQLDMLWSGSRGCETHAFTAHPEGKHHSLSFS
As to the kind of experiment: JAK3 Inhibition Assay (Omnia kinase fluorescence peptide substrate). Particulars: averaged IC50 ranges; 10 μM (Km app) or 1 mM ATP, 2.5 nM JAK3. The procedure, abridged: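 IC50 is the concentration giving 50 percent of control on a 4-parameter logistic fit of 10-point, 3-fold dilutions from a 10 μM top dose, at 2% final DMSO. Kinetic Sox fluorescence (360/485 nm) was monitored every 50 s for 45 min. Mix: JAK3 2.5 nM, Omnia Y7 peptide 10 μM, ATP 10 μM (Km app) or 1 mM, in HEPES pH 7.4 buffer with MgCl2, Triton X-100 and DTT.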

T2 sequence (P23458 whole entry): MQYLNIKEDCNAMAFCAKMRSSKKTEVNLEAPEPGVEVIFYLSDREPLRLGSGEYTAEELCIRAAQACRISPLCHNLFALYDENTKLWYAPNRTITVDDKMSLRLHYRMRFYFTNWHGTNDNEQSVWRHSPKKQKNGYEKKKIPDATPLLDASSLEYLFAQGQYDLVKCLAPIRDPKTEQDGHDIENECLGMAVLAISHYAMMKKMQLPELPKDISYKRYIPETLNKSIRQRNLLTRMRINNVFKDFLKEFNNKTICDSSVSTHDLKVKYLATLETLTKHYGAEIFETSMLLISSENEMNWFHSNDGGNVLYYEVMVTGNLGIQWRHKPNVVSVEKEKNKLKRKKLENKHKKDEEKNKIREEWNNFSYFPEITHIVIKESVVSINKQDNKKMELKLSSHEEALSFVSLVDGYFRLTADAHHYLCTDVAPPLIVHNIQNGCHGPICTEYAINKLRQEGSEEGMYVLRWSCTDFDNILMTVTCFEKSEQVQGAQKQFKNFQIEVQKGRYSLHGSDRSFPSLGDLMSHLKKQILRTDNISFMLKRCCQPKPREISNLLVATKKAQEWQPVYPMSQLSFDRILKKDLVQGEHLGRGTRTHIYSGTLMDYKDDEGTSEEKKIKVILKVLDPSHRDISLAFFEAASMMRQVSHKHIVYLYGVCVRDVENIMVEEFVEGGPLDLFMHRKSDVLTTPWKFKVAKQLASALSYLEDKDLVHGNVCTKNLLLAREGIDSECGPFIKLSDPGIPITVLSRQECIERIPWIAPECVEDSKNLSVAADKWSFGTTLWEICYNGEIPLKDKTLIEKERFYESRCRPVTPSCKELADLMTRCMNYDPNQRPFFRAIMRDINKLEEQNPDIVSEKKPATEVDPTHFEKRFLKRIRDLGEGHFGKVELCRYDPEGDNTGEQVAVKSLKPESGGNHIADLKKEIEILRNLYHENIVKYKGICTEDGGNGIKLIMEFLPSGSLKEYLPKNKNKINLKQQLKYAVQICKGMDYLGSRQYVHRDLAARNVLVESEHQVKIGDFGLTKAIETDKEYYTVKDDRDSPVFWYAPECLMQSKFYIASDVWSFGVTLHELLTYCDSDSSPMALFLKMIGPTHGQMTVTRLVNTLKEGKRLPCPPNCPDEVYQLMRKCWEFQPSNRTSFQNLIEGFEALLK

In the case of `Cn1cc(-c2cc3nccn3c(-c3cnn([C@@H](CC=C(F)F)C4CC4)c3)n2)cn1` [Example 50, (S)-5-(1-(1-cyclopropyl-4,4-difluorobut-3-en-1-yl)-1H-pyrazol-4-yl)-7-(1-methyl-1H-pyrazol-4-yl)imidazo[1,2-c]pyrimidine], the IC50 in experiment [1] was less than 10 nM; in experiment [2], 10 to 100 nM; in experiment [3], less than 10 nM; in experiment [4] it was 10 to 100 nM.
As for `Cn1cc(-c2cc3nccn3c(-c3cnn(C4(CCF)CN(S(=O)(=O)C(F)F)C4)c3)n2)cn1` [Example 51], the half-maximal inhibitory concentration (IC50) in experiment [1] is less than 10 nM; in experiment [2], 10 to 100 nM; in experiment [3], 10 to 100 nM; in experiment [4] it was 10 to 100 nM.
Turning to `Cn1cc(-c2cc3nccn3c(-c3cnn(C4(CCF)CCC4)c3)n2)cn1` [Example 52, 5-(1-(1-(2-fluoroethyl)cyclobutyl)-1H-pyrazol-4-yl)-7-(1-methyl-1H-pyrazol-4-yl)imidazo[1,2-c]pyrimidine], the IC50 fell in the range of 10 to 100 nM in experiment [1], 100 to 1000 nM in experiment [2], 100 to 1000 nM in experiment [3] and 100 to 1000 nM in experiment [4].
On to `COCCC1(n2cc(-c3nc(-c4cnn(C)c4)cc4nccn34)cn2)CCC1` [Example 53, 5-(1-(1-(2-methoxyethyl)cyclobutyl)-1H-pyrazol-4-yl)-7-(1-methyl-1H-pyrazol-4-yl)imidazo[1,2-c]pyrimidine], for which the IC50 in experiment [1] is 100 to 1000 nM; in experiment [2], more than 1000 nM; in experiment [3], 100 to 1000 nM; in experiment [4], 100 to 1000 nM.
For `Cn1cc(-c2cc3nccn3c(-c3cnn(C(CC=C(F)F)C4CC4)c3)n2)cn1` (stereo not drawn) [Example 54, 5-(1-(1-cyclopropyl-4,4-difluorobut-3-en-1-yl)-1H-pyrazol-4-yl)-7-(1-methyl-1H-pyrazol-4-yl)imidazo[1,2-c]pyrimidine], the IC50 was less than 10 nM in experiment [1], 10 to 100 nM in experiment [2], 10 to 100 nM in experiment [3] and 10 to 100 nM in experiment [4].
Take `C#CCC(C1CC1)n1cc(-c2nc(-c3cnn(C)c3)cc3nccn23)cn1` (stereo not drawn) [Example 55, 5-(1-(1-cyclopropylbut-3-yn-1-yl)-1H-pyrazol-4-yl)-7-(1-methyl-1H-pyrazol-4-yl)imidazo[1,2-c]pyrimidine]: the IC50 in experiment [1] was less than 10 nM; in experiment [2], 100 to 1000 nM; in experiment [3], 10 to 100 nM; in experiment [4] it was 100 to 1000 nM.
For `Cn1cc(-c2cc3nccn3c(-c3cnn(C4(CCO)CCC4)c3)n2)cn1` [Example 56, 2-(1-(4-(7-(1-methyl-1H-pyrazol-4-yl)imidazo[1,2-c]pyrimidin-5-yl)-1H-pyrazol-1-yl)cyclobutyl)ethanol], the IC50 in experiment [1] was 100 to 1000 nM; in experiment [2], more than 1000 nM; in experiment [3], more than 1000 nM; in experiment [4] it was more than 1000 nM.
Regarding `CCC(CCF)n1cc(-c2nc(-c3cnn(C)c3)cc3nccn23)cn1` (stereo not drawn) [Example 57, 5-(1-(1-fluoropentan-3-yl)-1H-pyrazol-4-yl)-7-(1-methyl-1H-pyrazol-4-yl)imidazo[1,2-c]pyrimidine], the IC50 in experiment [1] was 10 to 100 nM; in experiment [2] it was 100 to 1000 nM; in experiment [3] it was 100 to 1000 nM; in experiment [4], 100 to 1000 nM.
Consider `Cc1cc(-c2cc3nccn3c(-c3cnn(C4(CCF)CN(S(=O)(=O)C(F)(F)F)C4)c3)n2)[nH]n1` [Example 58, 5-(1-(3-(2-fluoroethyl)-1-((trifluoromethyl)sulfonyl)azetidin-3-yl)-1H-pyrazol-4-yl)-7-(3-methyl-1H-pyrazol-5-yl)imidazo[1,2-c]pyrimidine], for which the IC50 in experiment [1] was less than 10 nM; in experiment [2], 100 to 1000 nM; in experiment [3] it was 10 to 100 nM; in experiment [4] it was 100 to 1000 nM.
Consider `CO[C@H](C)Cn1cc(-c2cc3nccn3c(-c3cnn(C4(CCF)CN(S(=O)(=O)C(F)(F)F)C4)c3)n2)cn1` [Example 59, (R)-5-(1-(3-(2-fluoroethyl)-1-((trifluoromethyl)sulfonyl)azetidin-3-yl)-1H-pyrazol-4-yl)-7-(1-(2-methoxypropyl)-1H-pyrazol-4-yl)imidazo[1,2-c]pyrimidine], for which the IC50 was less than 10 nM in experiment [1], 100 to 1000 nM in experiment [2], 10 to 100 nM in experiment [3] and 100 to 1000 nM in experiment [4].
`O=S(=O)(N1CC(CCF)(n2cc(-c3nc(-c4cnn(C5CCOCC5)c4)cc4nccn34)cn2)C1)C(F)(F)F` [Example 60, 5-(1-(3-(2-fluoroethyl)-1-((trifluoromethyl)sulfonyl)azetidin-3-yl)-1H-pyrazol-4-yl)-7-(1-(tetrahydro-2H-pyran-4-yl)-1H-pyrazol-4-yl)imidazo[1,2-c]pyrimidine]: the IC50 was less than 10 nM in experiment [1], 10 to 100 nM in experiment [2], less than 10 nM in experiment [3] and 100 to 1000 nM in experiment [4].
Turning to `CC(=O)CC(C1CC1)n1cc(-c2nc(-c3cnn(C)c3)cc3nccn23)cn1` (stereo not drawn) [Example 61, 4-cyclopropyl-4-(4-(7-(1-methyl-1H-pyrazol-4-yl)imidazo[1,2-c]pyrimidin-5-yl)-1H-pyrazol-1-yl)butan-2-one], the IC50 in experiment [1] was 100 to 1000 nM; in experiment [2], more than 1000 nM; in experiment [3], 100 to 1000 nM; in experiment [4], more than 1000 nM.
As for `CSCCC(C1CC1)n1cc(-c2nc(-c3cnn(C)c3)cc3nccn23)cn1` (stereo not drawn) [Example 62, 5-(1-(1-cyclopropyl-3-(methylthio)propyl)-1H-pyrazol-4-yl)-7-(1-methyl-1H-pyrazol-4-yl)imidazo[1,2-c]pyrimidine], the IC50 lay in the range of 10 to 100 nM in experiment [1], 100 to 1000 nM in experiment [2], 10 to 100 nM in experiment [3] and 100 to 1000 nM in experiment [4].
`Cn1cc(-c2cc3nccn3c(-c3cnn(C(CC(N)=O)C4CC4)c3)n2)cn1` (stereo not drawn) [Example 63, 3-cyclopropyl-3-(4-(7-(1-methyl-1H-pyrazol-4-yl)imidazo[1,2-c]pyrimidin-5-yl)-1H-pyrazol-1-yl)propanamide]: the IC50 in experiment [1] was 100 to 1000 nM; in experiment [2], more than 1000 nM; in experiment [3] it was 100 to 1000 nM; in experiment [4] it was more than 1000 nM.
Take `Cn1cc(-c2cc3nccn3c(-c3cnn(C4(CCF)CN(S(C)(=O)=O)C4)c3)n2)cn1` [Example 64, 5-(1-(3-(2-fluoroethyl)-1-(methylsulfonyl)azetidin-3-yl)-1H-pyrazol-4-yl)-7-(1-methyl-1H-pyrazol-4-yl)imidazo[1,2-c]pyrimidine]: the IC50 was 10 to 100 nM in experiment [1], 100 to 1000 nM in experiment [2], 10 to 100 nM in experiment [3] and 100 to 1000 nM in experiment [4].
